pIC50: −log10 of the molar value.
Columns and labels:
ALK = ALK (Homo sapiens, UniProt Q9UM73); assay: ALK enzyme assay (HTRF); format: biochemical; conditions: 0.25 nM ALK, 15.0 μM ATP, values given as pIC50 category
Procedure, shortened: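 Isolated ALK phosphorylates a biotinylated tyrosine peptide, 120 min at 20° C; anti-phosphotyrosine Eu-cryptate/streptavidin-XL665 HTRF read after 60 min with EDTA-containing detection mix.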

[1] = biological target: T1, NIH-3T3 cells overexpressing human IGF-1R (Homo sapiens, UniProt P08069); assay: IGF-1R cellular autophosphorylation (DELFIA); format: cell-based
T1 construct: expressed in transfected cells; host or cells: NIH-3T3 (mouse fibroblasts)
T1 sequence (P08069 31-1367): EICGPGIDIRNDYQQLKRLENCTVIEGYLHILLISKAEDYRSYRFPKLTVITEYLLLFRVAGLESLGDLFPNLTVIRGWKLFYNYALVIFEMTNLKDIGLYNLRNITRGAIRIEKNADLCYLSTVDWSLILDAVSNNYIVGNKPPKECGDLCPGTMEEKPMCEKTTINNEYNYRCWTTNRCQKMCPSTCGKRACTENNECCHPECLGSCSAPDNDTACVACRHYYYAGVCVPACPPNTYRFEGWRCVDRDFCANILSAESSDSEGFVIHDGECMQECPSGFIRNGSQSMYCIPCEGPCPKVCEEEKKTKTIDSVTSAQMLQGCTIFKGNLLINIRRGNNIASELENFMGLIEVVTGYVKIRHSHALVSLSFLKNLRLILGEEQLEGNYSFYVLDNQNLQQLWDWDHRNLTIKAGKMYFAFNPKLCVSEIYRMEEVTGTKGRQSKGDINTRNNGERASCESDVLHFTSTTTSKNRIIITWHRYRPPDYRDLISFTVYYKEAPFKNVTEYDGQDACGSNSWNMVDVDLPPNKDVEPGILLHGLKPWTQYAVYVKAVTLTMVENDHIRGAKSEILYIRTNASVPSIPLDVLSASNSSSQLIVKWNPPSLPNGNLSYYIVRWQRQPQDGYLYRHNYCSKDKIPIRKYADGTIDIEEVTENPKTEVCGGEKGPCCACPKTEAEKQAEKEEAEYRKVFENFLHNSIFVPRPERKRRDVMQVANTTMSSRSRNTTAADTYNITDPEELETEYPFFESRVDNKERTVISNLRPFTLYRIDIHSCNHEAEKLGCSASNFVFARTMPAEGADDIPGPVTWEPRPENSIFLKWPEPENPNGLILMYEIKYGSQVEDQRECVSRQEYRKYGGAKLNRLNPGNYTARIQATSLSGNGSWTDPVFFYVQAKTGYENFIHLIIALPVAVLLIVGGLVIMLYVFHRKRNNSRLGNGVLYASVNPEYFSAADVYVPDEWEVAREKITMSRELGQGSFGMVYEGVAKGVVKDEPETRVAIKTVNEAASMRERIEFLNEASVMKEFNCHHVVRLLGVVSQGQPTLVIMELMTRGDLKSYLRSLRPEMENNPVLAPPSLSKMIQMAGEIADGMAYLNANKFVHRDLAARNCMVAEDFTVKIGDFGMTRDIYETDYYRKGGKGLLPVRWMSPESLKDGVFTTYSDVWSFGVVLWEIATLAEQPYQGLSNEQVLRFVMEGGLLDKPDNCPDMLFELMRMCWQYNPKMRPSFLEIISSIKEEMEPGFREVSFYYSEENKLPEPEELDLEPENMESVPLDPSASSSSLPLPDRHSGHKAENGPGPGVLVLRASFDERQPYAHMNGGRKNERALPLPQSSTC
Procedure, shortened: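 Receptor autophosphorylation measured by DELFIA, capturing IGF-1R or IRβ and detecting with europium anti-pTyr, reported as percent of IGF-1- or insulin-stimulated signal. Compounds (30 uM to 1.5 nM) added 2 h before ligand, then 15 min stimulation (IGF-1 30 ng/ml or insulin 3 ug/ml).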

[2] = biological target: T2, NIH-3T3 cells overexpressing human IR (Homo sapiens, UniProt P06213); assay: IR cellular autophosphorylation (DELFIA); format: cell-based; conditions: 2 h compound, insulin 3 ug/ml for 15 minutes, IC50 category
T2 construct: expressed in transfected cells; host or cells: NIH-3T3 (mouse fibroblasts)
T2 sequence (P06213 28-1382): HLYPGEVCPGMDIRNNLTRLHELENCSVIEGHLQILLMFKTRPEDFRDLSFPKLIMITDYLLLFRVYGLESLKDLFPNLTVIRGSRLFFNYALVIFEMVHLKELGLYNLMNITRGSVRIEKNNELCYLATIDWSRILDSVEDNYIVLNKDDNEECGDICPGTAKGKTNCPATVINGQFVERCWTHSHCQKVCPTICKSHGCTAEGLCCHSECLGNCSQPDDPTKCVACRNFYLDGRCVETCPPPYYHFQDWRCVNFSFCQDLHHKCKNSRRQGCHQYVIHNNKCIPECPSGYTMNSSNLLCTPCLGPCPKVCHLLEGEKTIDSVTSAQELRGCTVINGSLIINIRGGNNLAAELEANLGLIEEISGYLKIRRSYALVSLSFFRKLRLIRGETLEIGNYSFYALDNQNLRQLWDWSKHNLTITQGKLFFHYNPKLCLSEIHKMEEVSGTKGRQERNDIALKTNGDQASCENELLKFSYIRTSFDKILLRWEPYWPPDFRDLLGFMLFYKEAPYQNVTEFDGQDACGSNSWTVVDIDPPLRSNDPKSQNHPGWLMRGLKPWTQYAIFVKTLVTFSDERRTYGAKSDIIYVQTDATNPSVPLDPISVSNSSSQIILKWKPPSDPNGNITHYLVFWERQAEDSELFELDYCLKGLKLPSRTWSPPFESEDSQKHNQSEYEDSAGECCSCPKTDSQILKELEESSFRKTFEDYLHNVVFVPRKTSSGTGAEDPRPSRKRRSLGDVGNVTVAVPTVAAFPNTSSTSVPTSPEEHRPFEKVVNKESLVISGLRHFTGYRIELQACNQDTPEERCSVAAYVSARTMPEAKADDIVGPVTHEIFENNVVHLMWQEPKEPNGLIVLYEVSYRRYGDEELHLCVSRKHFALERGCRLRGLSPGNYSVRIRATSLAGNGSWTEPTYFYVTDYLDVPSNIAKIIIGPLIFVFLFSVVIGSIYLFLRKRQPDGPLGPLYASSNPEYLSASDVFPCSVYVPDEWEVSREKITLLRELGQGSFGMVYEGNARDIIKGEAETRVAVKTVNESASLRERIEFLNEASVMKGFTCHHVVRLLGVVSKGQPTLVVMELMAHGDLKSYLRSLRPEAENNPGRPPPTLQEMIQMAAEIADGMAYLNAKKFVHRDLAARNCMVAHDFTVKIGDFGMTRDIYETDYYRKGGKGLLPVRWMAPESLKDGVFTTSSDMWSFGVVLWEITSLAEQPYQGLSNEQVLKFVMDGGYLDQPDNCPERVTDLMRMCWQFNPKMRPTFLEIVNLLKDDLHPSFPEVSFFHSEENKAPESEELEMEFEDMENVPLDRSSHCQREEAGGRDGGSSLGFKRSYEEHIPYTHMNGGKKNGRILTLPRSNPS
Method: NIH-3T3 cells overexpressing human IGF-1R or IR were plated in 96-well plates (10,000 cells/well) in culture media containing 10% fetal bovine serum and incubated at 37° C. in a 5% CO2 incubator. Twenty four hours post-plating, cells were treated with different concentrations of test compounds ranging from 30 uM to 1.5 nM. Two hours after compound addition, cells were stimulated with either human IGF-1 (30 ng/ml) or insulin (3 ug/ml) for 15 minutes. Cell lysates are analyzed for phosphorylated receptors using dissociation enhanced lanthanide fluor-immuno assay (DELFIA) with anti-IGF-1R (MAB391, R&D Systems, Minneapolis, Minn.) or anti-IRβ (sc-711, Santa Cruz Biotechnology, Santa Cruz, Calif.) capture antibody and europium-labeled anti-pTyr antibody (Eu-N1 PT66, Perkin Elmer, Waltham, Mass.) for detection. The fluorescence signal for cells treated with compounds was expressed as percent relative to 100% stimulation (IGF-1 or insulin stimulated signal).

human IGF1R (hIGF1R) = biological target: T3, human IGF1R (hIGF1R) (Homo sapiens, UniProt P08069); assay: TR-FRET kinase assay of purified hIGF1R; format: biochemical; conditions: activated hIGF1R 0.5 nM, 10 μM ATP, values given as pIC50 category, read-out: IGF-1R pIC50 (converted)
T3 construct: containing amino acid residues 957-1367 of human IGF1R; made in house; host or cells: Sf9 cells (baculovirus)
T3 sequence (P08069 957-1367): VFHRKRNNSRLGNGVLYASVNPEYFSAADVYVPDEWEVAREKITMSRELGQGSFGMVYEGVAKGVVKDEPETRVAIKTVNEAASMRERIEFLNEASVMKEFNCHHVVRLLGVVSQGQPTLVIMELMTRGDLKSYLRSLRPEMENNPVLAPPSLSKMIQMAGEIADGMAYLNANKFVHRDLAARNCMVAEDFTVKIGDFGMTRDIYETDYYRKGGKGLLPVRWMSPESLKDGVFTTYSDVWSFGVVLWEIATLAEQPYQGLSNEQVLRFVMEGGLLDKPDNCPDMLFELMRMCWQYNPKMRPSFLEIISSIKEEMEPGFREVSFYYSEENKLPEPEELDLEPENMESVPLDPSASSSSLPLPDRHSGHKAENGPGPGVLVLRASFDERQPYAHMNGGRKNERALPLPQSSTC

Colo205 = assay: Inhibition of cell proliferation (CellTiter-Glo or InCell analyzer), Colo205; format: cell-based; conditions: Homo sapiens, COLO 205, 72 h / 3 days, values given as IC50 category
Method: (§1) Cell proliferation was measured by either CellTiter-Glo (measures cellular ATP level as a surrogate for total cell number) or by InCell analyzer (counts number of nuclei as a measure of cell number).
(§2) For CellTiter-Glo assay, exponentially growing cell lines of different tumor origins, cultured in appropriate media containing 10% fetal bovine serum at 37° C. in a 5% CO2 incubator, were plated at low density (less than 2000cells/well) in 96-well plates. Twenty four hours post-plating, cells were treated with different concentrations of test compounds ranging from 30 uM to 1.5 nM. Several wells were left untreated as a control. Seventy two hours post-treatment, cell numbers were determined using 50-100 ul per well of CellTiter-Glo (Promega #G7573). Plates were incubated at 37° C. for 30 minutes and the chemiluminescent signal was read on the Victor V or Envison 2100 reader.
(§3) For InCell Analyser assay, various cell lines of different tumor origins were grown to 70-80% confluency in appropriate culture media containing 10% fetal bovine serum at 37° C. in a 5% CO2 incubator. On day −1, cells were seeded at 2 densities in 384-well plates and incubated at 37° C. overnight. Stock compound plates were prepared in advance which contained dimethyl sulfoxide (DMSO) alone and a 9-point half-log decreasing dose range of the compound in DMSO. The compound plates were stored at −80° C. and each plate was only thawed once and used. On day 0, the main assay plates received compound or DMSO via a sonic delivery system (ECHO). The highest final concentration of compound of the dose range in the culture plates was 10 uM. These plates were cultured at 37° C. for 3 days. […] On day 3, the compound treated plates were stained and fixed to measure proliferation, apoptosis, and mitotic index using an InCelL1000 analyser. A nuclear stain was used to identify cells in the wells. By counting the number of nuclei, the proliferation index of compound treated groups were calculated as a percentage relative to the DMSO control, which was set to 100%. The IC50 values were calculated using model 205 in ExcelFit.
(§4) IC50 (nM) values for compounds of select examples were categorized by relative inhibition of cell proliferation.

human IR (hIR) = biological target: T4, human IR (hIR) (Homo sapiens, UniProt P06213); assay: TR-FRET kinase assay of purified hIR; format: biochemical; conditions: activated hIR 0.5 nM, 10 μM ATP, values given as pIC50 category
T4 construct: containing amino acid residues 979-1382 of human IR; made in house; host or cells: Sf9 cells (baculovirus), same process as hIGF1R
T4 sequence (P06213 979-1382): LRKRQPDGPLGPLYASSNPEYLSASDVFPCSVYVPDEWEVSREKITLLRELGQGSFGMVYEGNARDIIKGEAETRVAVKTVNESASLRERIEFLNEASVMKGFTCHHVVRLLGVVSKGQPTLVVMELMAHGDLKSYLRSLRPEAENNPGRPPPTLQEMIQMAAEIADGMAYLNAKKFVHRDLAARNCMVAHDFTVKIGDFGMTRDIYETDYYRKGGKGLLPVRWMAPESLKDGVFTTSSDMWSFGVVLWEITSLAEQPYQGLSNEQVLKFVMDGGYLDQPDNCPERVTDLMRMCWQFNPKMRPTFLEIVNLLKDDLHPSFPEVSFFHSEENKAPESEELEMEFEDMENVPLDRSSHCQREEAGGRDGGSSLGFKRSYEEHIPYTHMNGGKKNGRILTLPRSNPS

NCI-H929 = assay: Inhibition of cell proliferation (CellTiter-Glo or InCell analyzer), NCI-H929; format: cell-based; conditions: Homo sapiens, 72 h / 3 days, values given as IC50 category
Method: as §1, §2, §3, §4

Chain of ALK (Q9UM73 19-1620): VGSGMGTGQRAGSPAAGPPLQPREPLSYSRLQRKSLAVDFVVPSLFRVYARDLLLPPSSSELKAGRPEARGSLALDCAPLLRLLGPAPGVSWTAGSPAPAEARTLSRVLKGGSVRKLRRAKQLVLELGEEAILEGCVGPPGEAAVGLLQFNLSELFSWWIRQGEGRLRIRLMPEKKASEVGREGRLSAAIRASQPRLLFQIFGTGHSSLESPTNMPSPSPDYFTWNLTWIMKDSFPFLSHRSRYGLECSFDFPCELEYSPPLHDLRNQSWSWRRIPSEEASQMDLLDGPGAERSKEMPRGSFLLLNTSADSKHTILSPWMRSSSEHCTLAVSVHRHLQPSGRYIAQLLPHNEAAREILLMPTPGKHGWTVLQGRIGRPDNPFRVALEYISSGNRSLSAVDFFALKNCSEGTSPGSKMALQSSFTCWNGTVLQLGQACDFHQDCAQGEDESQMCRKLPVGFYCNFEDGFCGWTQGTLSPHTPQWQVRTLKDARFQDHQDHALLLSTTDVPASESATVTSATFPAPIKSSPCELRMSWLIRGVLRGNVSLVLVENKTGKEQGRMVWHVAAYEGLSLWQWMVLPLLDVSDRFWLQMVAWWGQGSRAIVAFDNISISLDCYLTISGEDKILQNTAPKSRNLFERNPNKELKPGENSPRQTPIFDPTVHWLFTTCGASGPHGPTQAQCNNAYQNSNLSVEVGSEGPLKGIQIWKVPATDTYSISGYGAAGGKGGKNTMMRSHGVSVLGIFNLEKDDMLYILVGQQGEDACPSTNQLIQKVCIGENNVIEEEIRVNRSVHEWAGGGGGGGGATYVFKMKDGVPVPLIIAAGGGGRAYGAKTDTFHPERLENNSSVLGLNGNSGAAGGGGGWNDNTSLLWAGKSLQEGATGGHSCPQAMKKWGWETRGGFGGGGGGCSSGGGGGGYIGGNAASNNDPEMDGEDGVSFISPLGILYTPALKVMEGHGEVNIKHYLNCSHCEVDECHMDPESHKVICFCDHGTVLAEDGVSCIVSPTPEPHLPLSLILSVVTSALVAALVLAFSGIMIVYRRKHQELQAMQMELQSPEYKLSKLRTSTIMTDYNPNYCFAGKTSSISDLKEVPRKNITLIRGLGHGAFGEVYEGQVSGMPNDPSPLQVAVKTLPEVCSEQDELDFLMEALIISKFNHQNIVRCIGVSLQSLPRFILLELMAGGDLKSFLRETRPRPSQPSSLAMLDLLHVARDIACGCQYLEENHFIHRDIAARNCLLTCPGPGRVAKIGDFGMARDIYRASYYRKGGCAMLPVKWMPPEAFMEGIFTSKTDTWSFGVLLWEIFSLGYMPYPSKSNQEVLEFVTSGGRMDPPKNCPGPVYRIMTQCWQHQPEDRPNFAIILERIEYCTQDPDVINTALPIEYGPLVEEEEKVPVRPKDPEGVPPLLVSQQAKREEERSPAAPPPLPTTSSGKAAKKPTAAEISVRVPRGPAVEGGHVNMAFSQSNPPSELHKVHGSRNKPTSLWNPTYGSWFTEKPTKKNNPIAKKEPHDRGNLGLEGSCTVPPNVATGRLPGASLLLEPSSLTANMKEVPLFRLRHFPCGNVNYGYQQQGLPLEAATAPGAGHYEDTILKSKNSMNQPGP

| pIC50 (ALK) | pIC50 [1] | pIC50 [2] | IC50 (human IGF1R (hIGF1R)) [nM] | pIC50 (Colo205) | pIC50 (human IR (hIR)) | pIC50 (NCI-H929) | SMILES |
| --- | --- | --- | --- | --- | --- | --- | --- |
| 8.40 to 8.90 | 6.30 to 7.00 | 6.30 to 7.00 | 1.26 to 3.98 | 6.00 to 6.60 | – | – | CNC(=O)c1cc(F)ccc1Nc1nc(Nc2ccc(N3CCN(C(C)C)CC3)cc2OC)nc2[nH]ccc12 [Example 65, 5-fluoro-N-methyl-2-[(2-{[4-[4-(1-methylethyl)-1-piperazinyl]-2-(methyloxy)phenyl]amino}-1H-pyrrolo[2,3-d]pyrimidin-4-yl)amino]benzamide] |
| 8.40 to 8.90 | < 6.30 | < 6.30 | 5.01 to 200 | > 6.60 | – | – | COc1cc(N2CCN(C(C)C)CC2)ccc1Nc1nc(Nc2ccc(F)cc2C(=O)NCCO)c2cc[nH]c2n1 [Example 66, 5-fluoro-N-(2-hydroxyethyl)-2-[(2-{[4-[4-(1-methylethyl)-1-piperazinyl]-2-(methyloxy)phenyl]amino}-1H-pyrrolo[2,3-d]pyrimidin-4-yl)amino]benzamide] |
| – | 6.30 to 7.00 | 6.30 to 7.00 | 1.26 to 3.98 | 6.00 to 6.60 | 8.40 to 8.90 | – | CCc1cc(N2CCN(C(C)C)CC2)ccc1Nc1nc(Nc2cc(F)ccc2C(N)=O)c2cc[nH]c2n1 [Example 69, 2-{[2-({2-ethyl-4-[4-(1-methylethyl)-1-piperazinyl]phenyl}amino)-1H-pyrrolo[2,3-d]pyrimidin-4-yl]amino}-4-fluorobenzamide] |
| – | > 7.00 | > 7.00 | 1.26 to 3.98 | 6.00 to 6.60 | 8.40 to 8.90 | – | COc1cc(N2CCOC[C@@H]2C)ccc1Nc1nc(Nc2cc(F)cc(F)c2C(N)=O)c2cc[nH]c2n1 [Example 90, 2,4-difluoro-6-[(2-{[4-[(3S)-3-methyl-4-morpholinyl]-2-(methyloxy)phenyl]amino}-1H-pyrrolo[2,3-d]pyrimidin-4-yl)amino]benzamide] |
| – | – | – | – | 6.00 to 6.60 | – | > 6.60 | CNC(=O)c1c(F)cccc1Nc1nc(Nc2cc3c(cc2OC)CCN3C(=O)CN(C)C)nc2[nH]ccc12 [Example 116, 2-[(2-{[1-(N,N-dimethylglycyl)-5-(methyloxy)-2,3-dihydro-1H-indol-6-yl]amino}-1H-pyrrolo[2,3-d]pyrimidin-4-yl)amino]-6-fluoro-N-methylbenzamide] |
| 6.70 to 8.30 | – | – | 1.26 to 3.98 | 6.00 to 6.60 | 8.40 to 8.90 | 6.00 to 6.60 | COc1cc2c(cc1Nc1nc(Nc3cc(F)cc(F)c3C(N)=O)c3cc[nH]c3n1)N(C(=O)[C@@H]1CCCN1C)CC2 [Example 148, 2,4-difluoro-6-[(2-{[5-(methyloxy)-1-(1-methyl-L-prolyl)-2,3-dihydro-1H-indol-6-yl]amino}-1H-pyrrolo[2,3-d]pyrimidin-4-yl)amino]benzamide] |
| 8.40 to 8.90 | – | – | 1.26 to 3.98 | > 6.60 | 8.40 to 8.90 | > 6.60 | COc1cc2c(cc1Nc1nc(Nc3ccc(F)c(F)c3C(N)=O)c3cc[nH]c3n1)N(C(=O)CN(C)C)CC2 [Example 159, 6-[(2-{[1-(N,N-dimethylglycyl)-5-(methyloxy)-2,3-dihydro-1H-indol-6-yl]amino}-1H-pyrrolo[2,3-d]pyrimidin-4-yl)amino]-2,3-difluorobenzamide] |
| 8.40 to 8.90 | – | – | 1.26 to 3.98 | 6.00 to 6.60 | 8.40 to 8.90 | > 6.60 | CNC(=O)c1c(Nc2nc(Nc3cc4c(cc3OC)CCN4C(=O)CN(C)C)nc3[nH]ccc23)ccc(F)c1F [Example 160, 6-[(2-{[1-(N,N-dimethylglycyl)-5-(methyloxy)-2,3-dihydro-1H-indol-6-yl]amino}-1H-pyrrolo[2,3-d]pyrimidin-4-yl)amino]-2,3-difluoro-N-methylbenzamide] |
| 8.40 to 8.90 | – | – | 5.01 to 200 | < 6.00 | 6.80 to 8.30 | 6.00 to 6.60 | COc1cc2c(cc1Nc1nc(Nc3ccc(F)c(F)c3C(=O)NC(C)C)c3cc[nH]c3n1)N(C(=O)CN(C)C)CCC2 [Example 164, 6-[(2-{[1-(N,N-dimethylglycyl)-6-(methyloxy)-1,2,3,4-tetrahydro-7-quinolinyl]amino}-1H-pyrrolo[2,3-d]pyrimidin-4-yl)amino]-2,3-difluoro-N-(1-methylethyl)benzamide] |
| 9.00 to 9.60 | – | – | – | > 6.60 | – | > 6.60 | COc1cc2c(cc1Nc1nc(Nc3cc(Cl)cc(F)c3C(N)=O)c3cc[nH]c3n1)N(C(=O)CN(C)C)CCC2 [Example 171, 4-chloro-2-[(2-{[1-(N,N-dimethylglycyl)-6-(methyloxy)-1,2,3,4-tetrahydro-7-quinolinyl]amino}-1H-pyrrolo[2,3-d]pyrimidin-4-yl)amino]-6-fluorobenzamide] |
| 8.40 to 8.90 | – | – | – | 6.00 to 6.60 | – | > 6.60 | CNC(=O)c1c(F)cc(Cl)cc1Nc1nc(Nc2cc3c(cc2OC)CCCN3C(=O)CN(C)C)nc2[nH]ccc12 [Example 172, 4-chloro-2-[(2-{[1-(N,N-dimethylglycyl)-6-(methyloxy)-1,2,3,4-tetrahydro-7-quinolinyl]amino}-1H-pyrrolo[2,3-d]pyrimidin-4-yl)amino]-6-fluoro-N-methylbenzamide] |
| 9.00 to 9.60 | – | – | 1.26 to 3.98 | > 6.60 | 8.40 to 8.90 | > 6.60 | CNC(=O)c1c(F)cccc1Nc1nc(Nc2cc3c(cc2OC)CCN3C(=O)[C@H](C)N(C)C)nc2[nH]ccc12 [Example 194, 2-[(2-{[1-(N,N-dimethyl-L-alanyl)-5-(methyloxy)-2,3-dihydro-1H-indol-6-yl]amino}-1H-pyrrolo[2,3-d]pyrimidin-4-yl)amino]-6-fluoro-N-methylbenzamide] |
| 8.40 to 8.90 | – | – | 1.26 to 3.98 | 6.00 to 6.60 | 8.40 to 8.90 | 6.00 to 6.60 | CNC(=O)c1c(F)cccc1Nc1nc(Nc2cc3c(cc2OC)CCN3C(=O)[C@@H](C)N(C)C)nc2[nH]ccc12 [Example 195, 2-[(2-{[1-(N,N-dimethyl-D-alanyl)-5-(methyloxy)-2,3-dihydro-1H-indol-6-yl]amino}-1H-pyrrolo[2,3-d]pyrimidin-4-yl)amino]-6-fluoro-N-methylbenzamide] |
| – | – | – | 0.251 to 1 | 6.00 to 6.60 | 9.00 to 9.60 | > 6.60 | CNC(=O)c1c(F)cccc1Nc1nc(Nc2cc3c(cc2OC)C(C)(C)CCN3C(=O)CN(C)C)nc2[nH]ccc12 [Example 226, 2-[(2-{[1-(N,N-dimethylglycyl)-4,4-dimethyl-6-(methyloxy)-1,2,3,4-tetrahydro-7-quinolinyl]amino}-1H-pyrrolo[2,3-d]pyrimidin-4-yl)amino]-6-fluoro-N-methylbenzamide] |
| – | – | – | 5.01 to 200 | < 6.00 | – | 6.00 to 6.60 | CNC(=O)c1c(F)cccc1Nc1nc(Nc2cc3c(cc2C)CCCN3C(=O)CN(C)C)nc2[nH]ccc12 [Example 247, 2-[(2-{[1-(N,N-dimethylglycyl)-6-methyl-1,2,3,4-tetrahydro-7-quinolinyl]amino}-1H-pyrrolo[2,3-d]pyrimidin-4-yl)amino]-6-fluoro-N-methylbenzamide] |

Reference: patent US7981903B2, “2-[2-{phenylamino}-1H-pyrrolo[2,3-D]pyrimidin-4-yl)amino] benzamide derivatives as IGF-1R inhibitors for the treatment of cancer” (GlaxoSmithKline LLC, priority 2007, dated 2011)
